# Results from patent US20150025077A1 (COYOTE PHARMACEUTICALS, INC., priority 2012, published 2015).
# What was measured:
# RhoA = experiment: Active RhoA to total RhoA in Neuro2A cells (G-LISA, ELISA); format: cell-based, mouse; conditions: 48 hrs treatment, ratio of active RhoA to total RhoA as percentage of DMSO treatments, concentration not given
# Procedure: Mouse neuroblastoma Neuro2A cells were cultured in DMEM supplemented with 10% FBS for 24 hrs. […] Cell lysates were quantified and subjected either to active RhoA assay using G-LISA RhoA activation Assay Biochem Kit (Cytoskeleton Inc), or to total RhoA assay using Total RhoA ELISA Kit (Cytoskeleton Inc). The results were calculated as ratio of active RhoA to total RhoA and averaged from 3 biological repeats of one experiment with background subtraction. The data was presented as percentage of DMSO treatments.
# HSP70 = HSP70 levels in Neuro 2a cells, ELISA; format: cell-based, mouse; conditions: 48 hrs compound then 24 hrs GGTI-298
# Procedure: Mouse neuroblastoma 2a cells were cultured in DMEM with 10% FBS for 24 hrs. […] After 24 hrs cells were harvested and lysates were prepared and analyzed by ELISA for HSP70. Compound ID numbers in table refer to structures in Table 1 and Table 2.
# Rap1 = experiment: Prenylation of Rap1 in Neuro2A cells, western blotting; format: cell-based, mouse; conditions: 100 nM; with GGTI-298; percentage of control (GGTI only)
# Procedure: Mouse neuroblastoma Neuro2A cells were cultured in DMEM supplemented with 10% FBS for 24 hrs. The cells were treated with 102GGA derivative compounds for 24 hrs first before GGTase inhibitor GGTI-298 was added to the culture medium for additional 24 hr incubation. […] Both un-prenylated and total Rap1 protein bands were quantified using Image J and normalized to their respective loading control GAPDH. The results for control and each compound treatment were calculated as the ratio of normalized un-prenylated Rap1 to total Rap1, and averaged from two biological repeats of one experiment. The final results were presented as a percentage of the control treatments (GGTI only) from the same batch experiment. The data shown in the chart were averaged from two repeats of one experiment and presented as the ratio of normalized un-prenylated Rap1 to total Rapt Compound ID numbers in table refer to structures in Table 1 and Table 2.
# Sprague Dawley rats = experiment: Kainic acid stereotactic hippocampus injection model, fraction of cells damaged; format: in vivo, rat; conditions: KA at 72 hours
# Procedure: CNS-102 was administered orally to Sprague Dawley rats at 12 mg/kg. After dosing, KA was stereotactically injected into the hippocampus at 24, 48, 72, 96 and 168 hours to induce neuron damage. After 24 h, hippocampus tissue was collected, stained, and imaged. The scans were analyzed by Image J to calculate the fraction of cells having KA-induced damage. Average fraction damaged in the hippocampus from ten animals for each treatment (PBS vs. 12 mg/kg CNS-102) by time (24, 48, 72, 96 and 168 hours) combination was estimated with PROC MIXED in SAS. Comparisons of the CNS-102 treatment groups to the pooled PBS treatment at the different times can be made, giving the results tabulated below.
# The fraction of cells damaged in the kainic acid model was determined on 130 rats, each receiving one dose of CNS-102 at either 0, 1, 3, 6, 12 or 24 mg/kg. PBS was used for dosing at 0 mg/kg. The linear model of the log10 percent damage versus concentration is graphically shown FIG. 5.
# After dosing, KA was stereotactically injected into the hippocampus at 72 hours to induce neuron damage. After 24 h, hippocampus tissue was collected, stained, and imaged. The scans were analyzed by Image J to calculate the fraction of cells having KA-induced damage.
# The indicated compounds or vehicle control were orally dosed to Sprague-Dawley rats, and Kainic acid was injected. After dosing, KA was stereotactically injected into the hippocampus at 72 hours to induce neuron damage. After 24 h, hippocampus tissue was collected, stained, and imaged. The scans were analyzed by Image J to calculate the fraction of cells having KA-induced damage. Neurons damaged by Kainic acid (mean of hippocampus CA3 neurons damaged) were quantified.
# SOD1 mice = experiment: CatWalk gait analysis in SOD1 mice; format: in vivo, mouse; design: Hind stride length, Mean/average: unit not given beside the values
# From the text: Prior to onset, there was little to no difference between the transgenic and wildtype groups. Transgenic animals tended to rely more on front paws for movement as weakness and paralysis in the hind paws progressed. This began to show around timepoint P100, coinciding with the expected onset of disease. This impairment was seen through changes in front and hind paw step cycle, print area, mean intensity, and base of support.
smiles,measurement,setting,value
"CCOc1cc(OCC)cc(C(=O)OC/C=C(\C)CC/C=C(\C)CC/C=C(\C)CCC=C(C)C)c1 [Compound 2i, 2E, 6E, 10E-Geranylgeranyl-3′,5′-diethoxybenzoate]",% Relative RhoGTPase Activity,RhoA,105.0%
same,"HSP70 level, ELISA signal (absence of compounds normalized as 1.00)",HSP70; 100 nM,1.08
same,unprenylated/total RAP1 (%),Rap1,92%
"CCCCCNC(=O)OC/C=C(\C)CC/C=C(\C)CCC=C(C)C [Compound 8b, n-Pentyl 2E, 6E-farnesyl carbamate]",Mean of Hippocampus CA3 Neurons Damaged,Sprague Dawley rats; 3 mg/kg oral,20%
same,% Relative RhoGTPase Activity,RhoA,125.0%
same,"HSP70 level, ELISA signal (absence of compounds normalized as 1.00)",HSP70; 10uM,1.38
same,unprenylated/total RAP1 (%),Rap1,55%
CC(C)=CCC/C(C)=C/CC/C(C)=C/CC/C(C)=C/CCC1(C)OCCO1 [Compound 105],% Relative RhoGTPase Activity,RhoA,85.1%
same,unprenylated/total RAP1 (%),Rap1,64%
"CC(C)=CCC/C(C)=C/CC/C(C)=C/CC/C(C)=C/C1=N[C@@H](C)CO1 [Compound 27b, (S)-4-methyl-2-((1E,5E,9E)-2,6,10,14-tetramethylpentadeca-1,5,9,13-tetraen-1-yl)-4,5-dihydrooxazole]",% Relative RhoGTPase Activity,RhoA,89.0%
same,"HSP70 level, ELISA signal (absence of compounds normalized as 1.00)",HSP70; 100 nM,1.16
same,"HSP70 level, ELISA signal (absence of compounds normalized as 1.00)",HSP70; 10uM,1.22
"CC(C)=CCC/C(C)=C/CC/C(C)=C/CC/C(C)=C/COC(=O)Nc1cc(Cl)c(Cl)c(Cl)c1 [Compound 7y, 3′,4′,5′-Trichlorophenyl 2E, 6E, 10E-geranylgeranyl carbamate]",% Relative RhoGTPase Activity,RhoA,94.4%
same,"HSP70 level, ELISA signal (absence of compounds normalized as 1.00)",HSP70; 10uM,1.13
same,unprenylated/total RAP1 (%),Rap1,68%
"CC(C)=CCC/C(C)=C/CC/C(C)=C/CC/C(C)=C/c1nnc(-c2ccc(C)cc2)o1 [Compound 29b, 2-((1E,5E,9E)-2,6,10,14-tetramethylpentadeca-1,5,9,13-tetraen-1-yl)-5-(p-tolyl)-1,3,4-oxadiazole]",% Relative RhoGTPase Activity,RhoA,96.1%
same,"HSP70 level, ELISA signal (absence of compounds normalized as 1.00)",HSP70; 100 nM,1.11
same,"HSP70 level, ELISA signal (absence of compounds normalized as 1.00)",HSP70; 10uM,1.17
same,unprenylated/total RAP1 (%),Rap1,49%
"COC(=O)[C@@H](NC(=O)OC(C)CC/C=C(\C)CC/C=C(\C)CCC=C(C)C)C(C)C (stereo partly drawn) [Compound 20j, 5E,9E-farnesyl prop-2-yl Methyl 2-(S)-(−)-3-methylbutyrate Carbamate]",% Relative RhoGTPase Activity,RhoA,85.9%
same,unprenylated/total RAP1 (%),Rap1,59%
"CC(C)=CCC/C(C)=C/CC/C(C)=C/CC/C(C)=C/C1=N[C@H](C(C)C)C(=O)O1 [Compound 37a, (R)-4-isopropyl-2-((1E,5E,9E)-2,6,10,14-tetramethylpentadeca-1,5,9,13-tetraen-1-yl)oxazol-5(4H)-one]",% Relative RhoGTPase Activity,RhoA,106.8%
same,"HSP70 level, ELISA signal (absence of compounds normalized as 1.00)",HSP70; 100 nM,1.04
same,"HSP70 level, ELISA signal (absence of compounds normalized as 1.00)",HSP70; 10uM,1.10
CCOC(=O)C(C/C=C(\C)CC/C=C(\C)CC/C=C(\C)CC/C=C(\C)CCC=C(C)C)C(C)=O (centres unmarked) [Compound 135],% Relative RhoGTPase Activity,RhoA,93.2%
same,"HSP70 level, ELISA signal (absence of compounds normalized as 1.00)",HSP70; 10uM,1.07
same,unprenylated/total RAP1 (%),Rap1,50%
"C=CCNC(=O)OC/C=C(\C)CC/C=C(\C)CCC=C(C)C [Compound 8j, Allyl 2E, 6E-farnesyl carbamate]",% Relative RhoGTPase Activity,RhoA,105.6%
same,"HSP70 level, ELISA signal (absence of compounds normalized as 1.00)",HSP70; 10 nM,1.13
same,"HSP70 level, ELISA signal (absence of compounds normalized as 1.00)",HSP70; 10uM,1.31
"CC(C)=CCC/C(C)=C/CC/C(C)=C/CC/C(C)=C/COC(=O)Nc1ccc2ccccc2c1 [Compound 7s, 2′-Naphthyl 2E, 6E, 10E-geranylgeranyl carbamate]",% Relative RhoGTPase Activity,RhoA,86.9%
same,"HSP70 level, ELISA signal (absence of compounds normalized as 1.00)",HSP70; 10uM,1.10
same,unprenylated/total RAP1 (%),Rap1,89%
"CCOC(=O)CCNC(=O)OC/C=C(\C)CC/C=C(\C)CCC=C(C)C [Compound 8m, Carboethoxy-2′-ethyl 2E, 6E-farnesyl carbamate]",% Relative RhoGTPase Activity,RhoA,111.4%
same,"HSP70 level, ELISA signal (absence of compounds normalized as 1.00)",HSP70; 10uM,1.05
"CCNC(=S)OC/C=C(\C)CC/C=C(\C)CC/C=C(\C)CCC=C(C)C [Compound 10b, Ethyl 2E,6E,10E-geranylgeranyl thiocarbamate]",% Relative RhoGTPase Activity,RhoA,86.2%
same,"HSP70 level, ELISA signal (absence of compounds normalized as 1.00)",HSP70; 100 nM,1.06
same,"HSP70 level, ELISA signal (absence of compounds normalized as 1.00)",HSP70; 10uM,1.34
"CNC(=S)OC/C=C(\C)CC/C=C(\C)CCC=C(C)C [Compound 43, O-((2E,6E)-3,7,11-trimethyldodeca-2,6,10-trien-1-yl) methylcarbamothioate]",% Relative RhoGTPase Activity,RhoA,102.7%
same,"HSP70 level, ELISA signal (absence of compounds normalized as 1.00)",HSP70; 10uM,0.95
"Nc1nc2ccc(OC(F)(F)F)cc2s1 [Riluzole, reference compound]","Run Duration, Mean/average","SOD1 mice; P-42, SOD1/Vehicle 1.484746201",1.65
same,"Hind stride length, Mean/average","SOD1 mice; P-42, SOD1/Vehicle 6.359471205",6.337
same,"Swing speed, Mean/average","SOD1 mice; P-42, SOD1/Vehicle 45.8515272",43.07
same,"Run Duration, Mean/average","SOD1 mice; P-124 (+/−) 3, SOD1/Vehicle 3.461605345",3.113
same,"Hind stride length, Mean/average","SOD1 mice; P-124 (+/−) 3, SOD1/Vehicle 3.607909383",4.244
same,"Swing speed, Mean/average","SOD1 mice; P-124 (+/−) 3, SOD1/Vehicle 23.93413455",29.71
"CCC(C)NC(=O)OC/C=C(\C)CC/C=C(\C)CCC=C(C)C (centres unmarked) [Compound 8g, Sec-Butyl 2E, 6E-farnesyl carbamate]",% Relative RhoGTPase Activity,RhoA,111.3%
same,"HSP70 level, ELISA signal (absence of compounds normalized as 1.00)",HSP70; 10 nM,1.17
same,"HSP70 level, ELISA signal (absence of compounds normalized as 1.00)",HSP70; 10uM,1.51
"COc1ccc(NC(=O)OC/C=C(\C)CC/C=C(\C)CC/C=C(\C)CCC=C(C)C)c(OC)c1 [Compound 7w, 2′,4′-Dimethoxyphenyl 2E, 6E, 10E-geranylgeranyl carbamate]",% Relative RhoGTPase Activity,RhoA,94.4%
same,"HSP70 level, ELISA signal (absence of compounds normalized as 1.00)",HSP70; 100 nM,1.14
same,unprenylated/total RAP1 (%),Rap1,77%
"CC(C)=CCC/C(C)=C/CC/C(C)=C/COC(=O)Nc1ccccc1 [Compound 8o, Phenyl 2E, 6E-farnesyl carbamate]",% Relative RhoGTPase Activity,RhoA,82.1%
same,"HSP70 level, ELISA signal (absence of compounds normalized as 1.00)",HSP70; 10uM,0.99
"CC(C)=CCC/C(C)=C/CC/C(C)=C/CC/C(C)=C/COC(=O)Nc1ccc(C(F)(F)F)cc1 [Compound 7q, p-Trifluoromethylphenyl 2E, 6E, 10E-geranylgeranyl carbamate]",% Relative RhoGTPase Activity,RhoA,83.5%
same,"HSP70 level, ELISA signal (absence of compounds normalized as 1.00)",HSP70; 10 nM,1.01
same,unprenylated/total RAP1 (%),Rap1,48%
"CC(C)=CCC/C(C)=C/CC/C(C)=C/CC/C(C)=C/COC(=S)NC1CC1 [Compound 10f, Cyclopropyl 2E,6E,10E-geranylgeranyl thiocarbamate]",Mean of Hippocampus CA3 Neurons Damaged,Sprague Dawley rats; 20 mg/kg oral,16%
same,"HSP70 level, ELISA signal (absence of compounds normalized as 1.00)",HSP70; 10uM,1.57
same,unprenylated/total RAP1 (%),Rap1,40%
"CCCCNC(=S)OC/C=C(\C)CC/C=C(\C)CC/C=C(\C)CCC=C(C)C [Compound 10e, O-((2E,6E,10E)-3,7,11,15-tetramethylhexadeca-2,6,10,14-tetraen-1-yl) butylcarbamothioate]",% Relative RhoGTPase Activity,RhoA,89.7%
same,"HSP70 level, ELISA signal (absence of compounds normalized as 1.00)",HSP70; 100 nM,1.09
same,unprenylated/total RAP1 (%),Rap1,56%
"CC(C)=CCC/C(C)=C/CC/C(C)=C/COC(=O)NC1CCCCC1 [Compound 8f, Cyclohexyl 2E, 6E-farnesyl carbamate]",% Relative RhoGTPase Activity,RhoA,104.6%
same,"HSP70 level, ELISA signal (absence of compounds normalized as 1.00)",HSP70; 10uM,1.29
